Assay results reported in US20100041089A1, “IMPROVED METHOD FOR DETECTING CHEMICAL […]” (priority 2006, published 2010).

Test system: yeast genes (expressed mRNA)
Assay: DNA chip measurement of expressed mRNA of yeast genes after culture with a toxic chemical substance
Type: cell-based, Saccharomyces cerevisiae S288C
Details: for level of expressed mRNA in the presence of chemical substance / level in the absence of chemical substance: cultured two hours with the chemical substance; for The level of expressed mRNA in the presence of chemical substance/The level of expressed mRNA in the absence of chemical substance: cultured two hours with substance
Summary of the method: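 Two-hour exposure of growing S. cerevisiae S288C (YPD, 25° C) to a sublethal toxicant preceded RNA isolation. Fluorescent cDNA was hybridized to a whole-genome array; a treated-to-untreated signal ratio of two or more was taken as significant.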

Manganese ethylenebis(dithiocarbamate) [(8)]
The level of expressed mRNA in the presence of chemical substance/The level of expressed mRNA in the absence of chemical substance, yeast gene YBR036C (gene YBR036C, Metabolism protein genes, DNA chip fluorescence ratio): 0.7
The level of expressed mRNA in the presence of chemical substance/The level of expressed mRNA in the absence of chemical substance, yeast gene YBR298C (gene YBR298C, Metabolism protein genes, DNA chip fluorescence ratio): 0.5
The level of expressed mRNA in the presence of chemical substance/The level of expressed mRNA in the absence of chemical substance, yeast gene YDL067C (gene YDL067C (mitochondria-located protein gene), yeast cultured two hours with chemical substance, DNA chip fluorescence ratio to control): 1.1
The level of expressed mRNA in the presence of chemical substance/The level of expressed mRNA in the absence of chemical substance, yeast gene YDL078C (gene YDL078C, Metabolism protein genes, DNA chip fluorescence ratio): 1.0
The level of expressed mRNA in the presence of chemical substance/The level of expressed mRNA in the absence of chemical substance, yeast gene YDL215C (gene YDL215C, Metabolism protein genes, DNA chip fluorescence ratio): 1.1
The level of expressed mRNA in the presence of chemical substance/The level of expressed mRNA in the absence of chemical substance, yeast gene YDR079W (gene YDR079W (mitochondria-located protein gene), yeast cultured two hours with chemical substance, DNA chip fluorescence ratio to control): 2.6
The level of expressed mRNA in the presence of chemical substance/The level of expressed mRNA in the absence of chemical substance, yeast gene YDR297W (gene YDR297W, Metabolism protein genes, DNA chip fluorescence ratio): 1.5
The level of expressed mRNA in the presence of chemical substance/The level of expressed mRNA in the absence of chemical substance, yeast gene YDR387C (gene YDR387C, Metabolism protein genes, DNA chip fluorescence ratio): 0.7
The level of expressed mRNA in the presence of chemical substance/The level of expressed mRNA in the absence of chemical substance, yeast gene YGL035C (gene YGL035C, Metabolism protein genes, DNA chip fluorescence ratio): 1.3
The level of expressed mRNA in the presence of chemical substance/The level of expressed mRNA in the absence of chemical substance, yeast gene YGR062C (gene YGR062C (mitochondria-located protein gene), yeast cultured two hours with chemical substance, DNA chip fluorescence ratio to control): 0.8
The level of expressed mRNA in the presence of chemical substance/The level of expressed mRNA in the absence of chemical substance, yeast gene YGR287C (gene YGR287C, Metabolism protein genes, DNA chip fluorescence ratio): 1.3
The level of expressed mRNA in the presence of chemical substance/The level of expressed mRNA in the absence of chemical substance, yeast gene YJL070C (gene YJL070C, Metabolism protein genes, DNA chip fluorescence ratio): 1.1
The level of expressed mRNA in the presence of chemical substance/The level of expressed mRNA in the absence of chemical substance, yeast gene YJL096W (gene YJL096W (mitochondria-located protein gene), yeast cultured two hours with chemical substance, DNA chip fluorescence ratio to control): 1.3
The level of expressed mRNA in the presence of chemical substance/The level of expressed mRNA in the absence of chemical substance, yeast gene YJL180C (gene YJL180C (mitochondria-located protein gene), yeast cultured two hours with chemical substance, DNA chip fluorescence ratio to control): 1.0
The level of expressed mRNA in the presence of chemical substance/The level of expressed mRNA in the absence of chemical substance, yeast gene YKR009C (gene YKR009C, Metabolism protein genes, DNA chip fluorescence ratio): 0.9
The level of expressed mRNA in the presence of chemical substance/The level of expressed mRNA in the absence of chemical substance, yeast gene YLR295C (gene YLR295C (mitochondria-located protein gene), yeast cultured two hours with chemical substance, DNA chip fluorescence ratio to control): 1.2
The level of expressed mRNA in the presence of chemical substance/The level of expressed mRNA in the absence of chemical substance, yeast gene YLR351C (gene YLR351C, Metabolism protein genes, DNA chip fluorescence ratio): 1.2
The level of expressed mRNA in the presence of chemical substance/The level of expressed mRNA in the absence of chemical substance, yeast gene YLR375W (gene YLR375W, Metabolism protein genes, DNA chip fluorescence ratio): 1.0
The level of expressed mRNA in the presence of chemical substance/The level of expressed mRNA in the absence of chemical substance, yeast gene YMR023C (gene YMR023C (mitochondria-located protein gene), yeast cultured two hours with chemical substance, DNA chip fluorescence ratio to control): 1.4
The level of expressed mRNA in the presence of chemical substance/The level of expressed mRNA in the absence of chemical substance, yeast gene YMR267W (gene YMR267W (mitochondria-located protein gene), yeast cultured two hours with chemical substance, DNA chip fluorescence ratio to control): 1.5
The level of expressed mRNA in the presence of chemical substance/The level of expressed mRNA in the absence of chemical substance, yeast gene YMR267W (gene YMR267W, Metabolism protein genes, DNA chip fluorescence ratio): 1.5
The level of expressed mRNA in the presence of chemical substance/The level of expressed mRNA in the absence of chemical substance, yeast gene YMR278W (gene YMR278W, Metabolism protein genes, DNA chip fluorescence ratio): 1.1
The level of expressed mRNA in the presence of chemical substance/The level of expressed mRNA in the absence of chemical substance, yeast gene YMR293C (gene YMR293C, Metabolism protein genes, DNA chip fluorescence ratio): 1.0
The level of expressed mRNA in the presence of chemical substance/The level of expressed mRNA in the absence of chemical substance, yeast gene YNL073W (gene YNL073W (mitochondria-located protein gene), yeast cultured two hours with chemical substance, DNA chip fluorescence ratio to control): 1.0
The level of expressed mRNA in the presence of chemical substance/The level of expressed mRNA in the absence of chemical substance, yeast gene YNR072W (gene YNR072W, Metabolism protein genes, DNA chip fluorescence ratio): 0.9
The level of expressed mRNA in the presence of chemical substance/The level of expressed mRNA in the absence of chemical substance, yeast gene YOL096C (gene YOL096C, Metabolism protein genes, DNA chip fluorescence ratio): 1.0
The level of expressed mRNA in the presence of chemical substance/The level of expressed mRNA in the absence of chemical substance, yeast gene YOR180C (gene YOR180C, Metabolism protein genes, DNA chip fluorescence ratio): 0.9
The level of expressed mRNA in the presence of chemical substance/The level of expressed mRNA in the absence of chemical substance, yeast gene YOR316C (gene YOR316C (mitochondria-located protein gene), yeast cultured two hours with chemical substance, DNA chip fluorescence ratio to control): 0.8
The level of expressed mRNA in the presence of chemical substance/The level of expressed mRNA in the absence of chemical substance, yeast gene YOR363C (gene YOR363C, Metabolism protein genes, DNA chip fluorescence ratio): 1.1
The level of expressed mRNA in the presence of chemical substance/The level of expressed mRNA in the absence of chemical substance, yeast gene YPL040C (gene YPL040C (mitochondria-located protein gene), yeast cultured two hours with chemical substance, DNA chip fluorescence ratio to control): 1.1
The level of expressed mRNA in the presence of chemical substance/The level of expressed mRNA in the absence of chemical substance, yeast gene YPL134C (gene YPL134C (mitochondria-located protein gene), yeast cultured two hours with chemical substance, DNA chip fluorescence ratio to control): 1.3
The level of expressed mRNA in the presence of chemical substance/The level of expressed mRNA in the absence of chemical substance, yeast gene YPR184W (gene YPR184W, Metabolism protein genes, DNA chip fluorescence ratio): 0.7
level of expressed mRNA in the presence of chemical substance / level in the absence of chemical substance (yeast gene YAL018C): 1.6
The level of expressed mRNA in the presence of chemical substance/The level of expressed mRNA in the absence of chemical substance (yeast gene YAL053W): 0.8
level of expressed mRNA in the presence of chemical substance / level in the absence of chemical substance (yeast gene YAR047C): 0.8
level of expressed mRNA in the presence of chemical substance / level in the absence of chemical substance (yeast gene YAR064W): 1.1
level of expressed mRNA in the presence of chemical substance / level in the absence of chemical substance (yeast gene YBL044W): 0.7
The level of expressed mRNA in the presence of chemical substance/The level of expressed mRNA in the absence of chemical substance (yeast gene YBL048W): 1.2
The level of expressed mRNA in the presence of chemical substance/The level of expressed mRNA in the absence of chemical substance (yeast gene YBL107C): 1.9
level of expressed mRNA in the presence of chemical substance / level in the absence of chemical substance (yeast gene YBR012C): 1.1
level of expressed mRNA in the presence of chemical substance / level in the absence of chemical substance (yeast gene YBR066C): 1.2
level of expressed mRNA in the presence of chemical substance / level in the absence of chemical substance (yeast gene YBR124W): 1.2
level of expressed mRNA in the presence of chemical substance / level in the absence of chemical substance (yeast gene YBR162C): 0.8
level of expressed mRNA in the presence of chemical substance / level in the absence of chemical substance (yeast gene YBR287W): 1.0
level of expressed mRNA in the presence of chemical substance / level in the absence of chemical substance (yeast gene YCL042W): 0.6
level of expressed mRNA in the presence of chemical substance / level in the absence of chemical substance (yeast gene YCL056C): 1.0
level of expressed mRNA in the presence of chemical substance / level in the absence of chemical substance (yeast gene YCR007C): 1.0
level of expressed mRNA in the presence of chemical substance / level in the absence of chemical substance (yeast gene YDL046W): 0.7
The level of expressed mRNA in the presence of chemical substance/The level of expressed mRNA in the absence of chemical substance (yeast gene YDL072C): 0.8
The level of expressed mRNA in the presence of chemical substance/The level of expressed mRNA in the absence of chemical substance (yeast gene YDL204W): 1.1
The level of expressed mRNA in the presence of chemical substance/The level of expressed mRNA in the absence of chemical substance (yeast gene YDL222C): 0.7
level of expressed mRNA in the presence of chemical substance / level in the absence of chemical substance (yeast gene YDR090C): 0.8
